Test system: genes predictive for the anti-inflammatory macrolide effect
Assay: Genes statistically predictive of Clari response: differentially expressed with Clari but not the inactive macrolides MAA or Josa (Appendix E)
Assay type: cell-based
Description: In the case of the above-mentioned (i) related to arachidonic acid biosynthesis, specifically, methods of the embodiment involve assaying whether a test macrolide alters biosynthesis of arachidonic acid, alters the expression or activities of enzymes involved in the biosynthesis or activation of arachidonic acid (e.g., arachidonic acid CoA synthetase, delta-6 desaturase, fatty acid elongase, and delta-5 desaturase, AA-related genes in Tables 2 and 3), or alters the expression of genes identified as predictive for the anti-inflammatory macrolide effect (Appendix E). Assays in which arachidonic acid or gene expression or enzymatic activity is detected can be carried out after contacting a cell with a test macrolide. Any cell line that secretes prostaglandin or produces arachidonic acid can be used. Epithelial and macrophages lines (e.g., A549 or THP-1) are suitable for this purpose; other cell lines can be identified by carrying out assays such as those described in the specific Examples, below. Alternatively, screening assays can be carried out after adding a test macrolide to an in vitro cell system (e.g., a cellular extract or liver microsome preparation) or an in vitro enzyme assay system.

CC[C@H]1OC(=O)[C@H](C)[C@@H](O[C@H]2C[C@@](C)(OC)[C@@H](O)[C@H](C)O2)[C@H](C)[C@@H](O[C@@H]2O[C@H](C)C[C@H](N(C)C)[C@H]2O)[C@](C)(OC)C[C@@H](C)C(=O)[C@H](C)[C@@H](O)[C@]1(C)O [clarithromycin]
group mean, gene UNG (SpotID 48807, MAA and Josa vs. Clari): 0.91
group mean, gene TUBB (SpotID 48914, MAA and Josa vs. Clari): 0.83
group mean, gene ITGAE (SpotID 48921, MAA and Josa vs. Clari): 0.99
mean group, ITGAE (SpotID 48921, pooled group mean): 0.97
group mean, gene P4HA2 (SpotID 48971, MAA and Josa vs. Clari): 1.48
group mean, gene FADS1 (SpotID 48998, MAA and Josa vs. Clari): 1.44
group mean, gene PRSS25 (SpotID 49006, MAA and Josa vs. Clari): 1.17
mean group, PRSS25 (SpotID 49006, pooled group mean): 1.14
group mean, gene TM9SF2 (SpotID 49007, MAA and Josa vs. Clari): 1.20
mean group, TM9SF2 (SpotID 49007, pooled group mean): 1.18
group mean, gene BBC3 (SpotID 49013, MAA and Josa vs. Clari): 1.07
group mean, gene BNIP3L (SpotID 49028, MAA and Josa vs. Clari): 1.25
mean group, BNIP3L (SpotID 49028, pooled group mean): 1.20
group mean, gene GSK3B (SpotID 49032, MAA and Josa vs. Clari): 1.23
group mean, gene GLUD1 (SpotID 49047, MAA and Josa vs. Clari): 0.95
group mean, gene SERPINB1 (SpotID 49117, MAA and Josa vs. Clari): 0.84
mean group, SERPINB1 (SpotID 49117, pooled group mean): 0.88
group mean, gene PPIB (SpotID 49142, MAA and Josa vs. Clari): 1.18
group mean, gene PIK3R3 (SpotID 49144, MAA and Josa vs. Clari): 1.15
group mean, gene ARTS-1 (SpotID 49155, MAA and Josa vs. Clari): 0.81
mean group, ARTS-1 (SpotID 49155, pooled group mean): 0.86
group mean, gene LGALS3 (SpotID 49163, MAA and Josa vs. Clari): 1.23
group mean, gene RRS1 (SpotID 49169, MAA and Josa vs. Clari): 0.88
mean group, RRS1 (SpotID 49169, pooled group mean): 0.93
group mean, gene YAF2 (SpotID 49172, MAA and Josa vs. Clari): 0.90
group mean, gene NEDD8 (SpotID 49177, MAA and Josa vs. Clari): 1.06
group mean, gene SRRM1 (SpotID 49183, MAA and Josa vs. Clari): 0.81
group mean, gene FUCA1 (SpotID 49197, MAA and Josa vs. Clari): 1.13
group mean, gene APOE (SpotID 49233, MAA and Josa vs. Clari): 1.03
mean group, APOE (SpotID 49233, pooled group mean): 1.01
mean group, TNFRSF10B (SpotID 49272, pooled group mean): 1.08
group mean, gene PPIB (SpotID 49314, MAA and Josa vs. Clari): 1.18
mean group, PPIB (SpotID 49314, pooled group mean): 1.16
group mean, gene YWHAH (SpotID 49318, MAA and Josa vs. Clari): 0.95
mean group, YWHAH (SpotID 49318, pooled group mean): 0.97
group mean, gene HNRPA3 (SpotID 49347, MAA and Josa vs. Clari): 0.71
group mean, gene NCBP2 (SpotID 49352, MAA and Josa vs. Clari): 1.03
group mean, gene TEB4 (SpotID 49360, MAA and Josa vs. Clari): 0.88
mean group, TEB4 (SpotID 49360, pooled group mean): 0.94
group mean, gene ABCE1 (SpotID 49364, MAA and Josa vs. Clari): 0.92
group mean, gene EIF3S9 (SpotID 49373, MAA and Josa vs. Clari): 0.94
mean group, SpotID 49374 (SpotID 49374 (gene symbol not given), pooled group mean): 1.03
group mean, SpotID 49374 (gene symbol not given) (SpotID 49374, MAA and Josa vs. Clari): 1.04
group mean, gene SLC35A2 (SpotID 49380, MAA and Josa vs. Clari): 1.11
group mean, gene PPP3CB (SpotID 49391, MAA and Josa vs. Clari): 0.92
group mean, gene TRRAP (SpotID 49435, MAA and Josa vs. Clari): 0.89
mean group, TRRAP (SpotID 49435, pooled group mean): 0.92
group mean, gene SRC (SpotID 49446, MAA and Josa vs. Clari): 1.17
mean group, SRC (SpotID 49446, pooled group mean): 1.14
group mean, gene LOC55871 (SpotID 49481, MAA and Josa vs. Clari): 1.05
group mean, gene VTN (SpotID 49490, MAA and Josa vs. Clari): 0.91
mean group, VTN (SpotID 49490, pooled group mean): 0.94
group mean, gene MATN2 (SpotID 49511, MAA and Josa vs. Clari): 1.17
group mean, gene GC20 (SpotID 49512, MAA and Josa vs. Clari): 1.16
group mean, gene UBC (SpotID 49514, MAA and Josa vs. Clari): 1.11
mean group, UBC (SpotID 49514, pooled group mean): 1.09
group mean, gene AP1G2 (SpotID 49524, MAA and Josa vs. Clari): 0.97
mean group, AP1G2 (SpotID 49524, pooled group mean): 0.92
group mean, gene GNPI (SpotID 49546, MAA and Josa vs. Clari): 1.16
mean group, LOC54543 (SpotID 49577, pooled group mean): 1.02
group mean, gene PSMC4 (SpotID 49580, MAA and Josa vs. Clari): 0.99
mean group, CSTF3 (SpotID 49606, pooled group mean): 1.07
group mean, gene POU4F1 (SpotID 49608, MAA and Josa vs. Clari): 1.05
group mean, gene CLN2 (SpotID 49618, MAA and Josa vs. Clari): 1.15
mean group, CLN2 (SpotID 49618, pooled group mean): 1.12
group mean, gene FGF2 (SpotID 49649, MAA and Josa vs. Clari): 0.76
group mean, gene MAP3K10 (SpotID 49650, MAA and Josa vs. Clari): 1.16
mean group, BTN3A2 (SpotID 49673, pooled group mean): 1.11
mean group, SERPINF1 (SpotID 49679, pooled group mean): 1.09
group mean, gene GSK3B (SpotID 49688, MAA and Josa vs. Clari): 1.26
group mean, gene CAT (SpotID 49698, MAA and Josa vs. Clari): 1.08
group mean, gene PCYT2 (SpotID 49705, MAA and Josa vs. Clari): 1.24
group mean, gene HNRPD (SpotID 49715, MAA and Josa vs. Clari): 0.88
group mean, gene GSK3B (SpotID 49735, MAA and Josa vs. Clari): 1.13
group mean, gene CHAF1B (SpotID 49737, MAA and Josa vs. Clari): 0.84
mean group, CHAF1B (SpotID 49737, pooled group mean): 0.88
group mean, gene USF2 (SpotID 49744, MAA and Josa vs. Clari): 1.07
group mean, gene RPLP0 (SpotID 49747, MAA and Josa vs. Clari): 1.09
group mean, gene DDOST (SpotID 49757, MAA and Josa vs. Clari): 1.08
group mean, gene BCL2L2 (SpotID 49761, MAA and Josa vs. Clari): 1.01
group mean, gene AD022 (SpotID 49767, MAA and Josa vs. Clari): 1.12
mean group, AD022 (SpotID 49767, pooled group mean): 1.10
group mean, gene P4HB (SpotID 49781, MAA and Josa vs. Clari): 1.10
group mean, gene CYC1 (SpotID 49787, MAA and Josa vs. Clari): 0.90
mean group, CYC1 (SpotID 49787, pooled group mean): 0.94
group mean, gene BCL2L2 (SpotID 49794, MAA and Josa vs. Clari): 1.01
mean group, AD022 (SpotID 49800, pooled group mean): 1.09
group mean, gene CDKN2C (SpotID 49815, MAA and Josa vs. Clari): 0.90
group mean, gene CYC1 (SpotID 49820, MAA and Josa vs. Clari): 0.90
group mean, gene LAMP2 (SpotID 49882, MAA and Josa vs. Clari): 1.17
group mean, gene ATP2B4 (SpotID 49915, MAA and Josa vs. Clari): 1.03
mean group, ATP2B4 (SpotID 49915, pooled group mean): 1.06
group mean, gene DHCR24 (SpotID 49922, MAA and Josa vs. Clari): 1.27
group mean, gene KIAA0169 (SpotID 49930, MAA and Josa vs. Clari): 0.95
mean group, RFC1 (SpotID 49947, pooled group mean): 0.93
group mean, gene CCNE2 (SpotID 49967, MAA and Josa vs. Clari): 0.82
group mean, gene BMP6 (SpotID 49981, MAA and Josa vs. Clari): 1.10
group mean, gene VTN (SpotID 49989, MAA and Josa vs. Clari): 0.90
group mean, gene SRC (SpotID 49990, MAA and Josa vs. Clari): 1.17
group mean, gene NFYC (SpotID 50011, MAA and Josa vs. Clari): 0.95
mean group, HIF1A (SpotID 50022, pooled group mean): 0.93
group mean, gene GNB2L1 (SpotID 50049, MAA and Josa vs. Clari): 1.10
mean group, NDUFA2 (SpotID 50050, pooled group mean): 1.02
group mean, gene MBTPS1 (SpotID 50067, MAA and Josa vs. Clari): 1.07
group mean, gene SCOP (SpotID 50079, MAA and Josa vs. Clari): 1.05
mean group, SCOP (SpotID 50079, pooled group mean): 1.04
group mean, gene IDI1 (SpotID 50084, MAA and Josa vs. Clari): 1.32
group mean, SpotID 50085 (gene symbol not given) (SpotID 50085, MAA and Josa vs. Clari): 1.00
group mean, gene CNOT3 (SpotID 50099, MAA and Josa vs. Clari): 0.84
mean group, CNOT3 (SpotID 50099, pooled group mean): 0.86
group mean, gene IRF5 (SpotID 50103, MAA and Josa vs. Clari): 1.01
group mean, gene RRBP1 (SpotID 50135, MAA and Josa vs. Clari): 1.11
group mean, SpotID 50216 (gene symbol not given) (SpotID 50216, MAA and Josa vs. Clari): 1.05
group mean, gene FLJ13868 (SpotID 50222, MAA and Josa vs. Clari): 1.06
group mean, gene HK2 (SpotID 50224, MAA and Josa vs. Clari): 1.14
mean group, IL10RB (SpotID 50267, pooled group mean): 1.08
group mean, gene UQCR (SpotID 50284, MAA and Josa vs. Clari): 1.00
group mean, gene TM7SF2 (SpotID 50294, MAA and Josa vs. Clari): 1.29
group mean, gene CDR2 (SpotID 50302, MAA and Josa vs. Clari): 1.08
group mean, gene MAX (SpotID 50307, MAA and Josa vs. Clari): 1.10
group mean, gene BMP6 (SpotID 50319, MAA and Josa vs. Clari): 1.15
group mean, gene DAD1 (SpotID 50332, MAA and Josa vs. Clari): 1.20
group mean, gene FGFR2 (SpotID 50337, MAA and Josa vs. Clari): 1.08
group mean, gene IKKE (SpotID 50342, MAA and Josa vs. Clari): 1.11
mean group, IKKE (SpotID 50342, pooled group mean): 1.08
group mean, gene LOC51295 (SpotID 50349, MAA and Josa vs. Clari): 0.78
mean group, LOC51295 (SpotID 50349, pooled group mean): 0.84
mean group, CFL1 (SpotID 50351, pooled group mean): 1.00
group mean, gene TFAM (SpotID 50386, MAA and Josa vs. Clari): 0.91
group mean, gene DGCR6L (SpotID 50399, MAA and Josa vs. Clari): 1.17
group mean, gene CHERP (SpotID 50405, MAA and Josa vs. Clari): 0.87
group mean, gene AGPAT1 (SpotID 50412, MAA and Josa vs. Clari): 1.12
mean group, GOCAP1 (SpotID 50421, pooled group mean): 1.10
group mean, gene SIGIRR (SpotID 50452, MAA and Josa vs. Clari): 1.10
group mean, gene MMP15 (SpotID 50464, MAA and Josa vs. Clari): 1.10
group mean, gene CEBPA (SpotID 50474, MAA and Josa vs. Clari): 1.29
mean group, MGP (SpotID 50511, pooled group mean): 0.98
group mean, gene ARHC (SpotID 50513, MAA and Josa vs. Clari): 1.02
mean group, ARHC (SpotID 50513, pooled group mean): 1.00
group mean, gene PRKCBP1 (SpotID 50532, MAA and Josa vs. Clari): 0.94
group mean, gene PTPRT (SpotID 50550, MAA and Josa vs. Clari): 1.08
mean group, BN51T (SpotID 50584, pooled group mean): 1.07
mean group, CKS2 (SpotID 50590, pooled group mean): 0.89
mean group, SpotID 50591 (SpotID 50591 (gene symbol not given), pooled group mean): 1.13
group mean, SpotID 50591 (gene symbol not given) (SpotID 50591, MAA and Josa vs. Clari): 1.17
mean group, SRP19 (SpotID 50601, pooled group mean): 1.06
group mean, gene PDIR (SpotID 50639, MAA and Josa vs. Clari): 1.10
group mean, gene PROS1 (SpotID 50643, MAA and Josa vs. Clari): 1.11
mean group, BET1 (SpotID 50645, pooled group mean): 1.01
group mean, gene COPB2 (SpotID 50654, MAA and Josa vs. Clari): 1.12
group mean, gene MAX (SpotID 50659, MAA and Josa vs. Clari): 1.10
group mean, gene GNB5 (SpotID 50689, MAA and Josa vs. Clari): 1.19
group mean, gene PRKDC (SpotID 50736, MAA and Josa vs. Clari): 0.90
mean group, PRKDC (SpotID 50736, pooled group mean): 0.92
group mean, gene AD022 (SpotID 50738, MAA and Josa vs. Clari): 1.14
mean group, AD022 (SpotID 50738, pooled group mean): 1.10
